Tests used:
Format in all cases: in vivo
[1] = test system: Exserohilum turcicum; test: Field assessment of Exserohilum turcicum (SETOTU) in corn
Source text: Field Assessment of Exserohilum turcicum (SETOTU) in Corn: A fungicidal treatment containing Compound I, tank mixed with an adjuvant (Agnique BP-420, 50% w/w at 0.3% v/v), was sprayed on corn plants once at the growth stage 51 (beginning tassel emergence) at rates of 50, 75, 100, and 150 g ai/ha. The treatment was part of an experimental trial designed as a randomized complete block with four replications. Compound I was applied at water volume of 140 L/ha, using a backpack precision plot sprayer. Disease severity was assessed as combined percent visual necrosis on leaves ear-1, ear and ear+1. Severity was assessed twice at 24 DAA1 (days after application 1) and 32 DAA1.

[2] = test system: Cercospora zeae-maydis; test: Field assessment of Cercospora zeae-maydis (CERCZM), grey leaf spot, in corn
Source text: Field Assessment of Cercospora zeae-Maydis (CERCZM) in Corn:
(§1) A fungicidal treatment containing Compound I, applied alone in an EC formulation at 100 grams of active ingredient per hectare (g ai/ha) and tank mixed with an adjuvant (Agnique BP-420, 50% w/w at 0.3% v/v), was sprayed on corn plants (ZEAMX, Formula variety) twice at the growth stages 18 (8 leaves unfolded, application A) and 39 (stem elongation; prior to tassle emergence, application B) at rates of 25, 50, 100, 125 and 150 g ai/ha. The experimental plots were inoculated with grey leaf spot 24 hr after each application. The treatment was part of an experimental trial designed as a randomized complete block with four replications and a plot of approximately 1×3 m. Compound I was applied at water volume of 200 L/ha, using a backpack precision plot sprayer (BKPCKAIR, 2 and 3 m band width, Flat Fan XR110.015 Nozzle) and pressurized at 45 psi.
(§2) Disease severity (percentage of visual diseased foliage on whole plot) was assessed six times (15-49 days after application B, DAAB). The disease infection was recorded following EPPO PP1/26 guideline prescriptions. Area under the disease progress curve (AUDPC) was calculated for each plot using the sets of recorded severity data. Relative AUDPC (% control based on AUDPC) was calculated as percent of the nontreated control.

[3] = test system: Phaeosphaeria maydis; test: Field assessment of Phaeosphaeria maydis (PHSPMA), phaeosphaeria leaf spot, in corn
Source text: Field Assessment of Phaeosphaeria maydis (PHSPMA) in Corn:
as §1, with “P30R50” for “Formula”, “phaeosphaeria” for “grey”
as §2

[4] = test system: Puccinia polysora; test: Field assessment of Puccinia polysora (PUCCPY), brown rust, in corn
Source text: Field Assessment of Puccinia polysora (PUCCPY) in Corn:
as §1, with “P30R50” for “Formula”, “brown rust” for “grey leaf spot”
as §2

[5] = 25 g ai/ha, with adjuvant Agnique BP-420, two applications
[6] = 50 g ai/ha, with adjuvant Agnique BP-420, two applications
[7] = 100 g ai/ha, with adjuvant Agnique BP-420, two applications
[8] = 100 g ai/ha, without adjuvant, two applications
[9] = 125 g ai/ha, with adjuvant Agnique BP-420, two applications
[10] = 150 g ai/ha, with adjuvant Agnique BP-420, two applications

## N#Cc1ccc(Oc2ccc(C(F)(F)C(O)(Cn3ncnc3S)c3ccc(F)cc3F)nc2)cc1 (centres unmarked) [Compound I, 4-((6-(2-(2,4-difluorophenyl)-1,1-difluoro-2-hydroxy-3-(5-mercapto-1H-1,2,4-triazol-1-yl)propyl)pyridin-3-yl)oxy)benzonitrile]
[1]; 50 g ai/ha, 24 DAA1, tank mixed with Agnique BP-420, untreated control 36.1
  Disease severity: combined visual necrosis on leaves ear-1, ear and ear+1: 46.5%
[1]; 50 g ai/ha, 32 DAA1, tank mixed with Agnique BP-420, untreated control 50.4
  Disease severity: combined visual necrosis on leaves ear-1, ear and ear+1: 45.5%
[1]; 75 g ai/ha, 24 DAA1, tank mixed with Agnique BP-420, untreated control 36.1
  Disease severity: combined visual necrosis on leaves ear-1, ear and ear+1: 45.0%
[1]; 75 g ai/ha, 32 DAA1, tank mixed with Agnique BP-420, untreated control 50.4
  Disease severity: combined visual necrosis on leaves ear-1, ear and ear+1: 44.2%
[1]; 100 g ai/ha, 24 DAA1, tank mixed with Agnique BP-420, untreated control 36.1
  Disease severity: combined visual necrosis on leaves ear-1, ear and ear+1: 37.2%
[1]; 100 g ai/ha, 32 DAA1, tank mixed with Agnique BP-420, untreated control 50.4
  Disease severity: combined visual necrosis on leaves ear-1, ear and ear+1: 31.6%
[1]; 150 g ai/ha, 24 DAA1, tank mixed with Agnique BP-420, untreated control 36.1
  Disease severity: combined visual necrosis on leaves ear-1, ear and ear+1: 37.9%
[1]; 150 g ai/ha, 32 DAA1, tank mixed with Agnique BP-420, untreated control 50.4
  Disease severity: combined visual necrosis on leaves ear-1, ear and ear+1: 33.3%
[2]; [5]
  Disease (% Control) CERCZM, based on AUDPC: B (51-75)
[2]; [6]
  Disease (% Control) CERCZM, based on AUDPC: B (51-75)
[2]; [7]
  Disease (% Control) CERCZM, based on AUDPC: B (51-75)
[2]; [8]
  Disease (% Control) CERCZM, based on AUDPC: C (26-50)
[2]; [9]
  Disease (% Control) CERCZM, based on AUDPC: A (76-100)
[2]; [10]
  Disease (% Control) CERCZM, based on AUDPC: A (76-100)
[3]; [5]
  Disease (% Control) PHSPMA, based on AUDPC: B (51-75)
[3]; [6]
  Disease (% Control) PHSPMA, based on AUDPC: B (51-75)
[3]; [7]
  Disease (% Control) PHSPMA, based on AUDPC: A (76-100)
[3]; [8]
  Disease (% Control) PHSPMA, based on AUDPC: B (51-75)
[3]; [9]
  Disease (% Control) PHSPMA, based on AUDPC: A (76-100)
[3]; [10]
  Disease (% Control) PHSPMA, based on AUDPC: A (76-100)
[4]; [5]
  Disease (% Control) PUCCPY, based on AUDPC: A (76-100)
[4]; [6]
  Disease (% Control) PUCCPY, based on AUDPC: A (76-100)
[4]; [7]
  Disease (% Control) PUCCPY, based on AUDPC: A (76-100)
[4]; [8]
  Disease (% Control) PUCCPY, based on AUDPC: A (76-100)
[4]; [9]
  Disease (% Control) PUCCPY, based on AUDPC: A (76-100)
[4]; [10]
  Disease (% Control) PUCCPY, based on AUDPC: A (76-100)
